Among the data in ChEMBL document CHEMBL5331053, “Defining the structure-activity relationship for a novel class of allosteric MKP5 inhibitors” (Eur J Med Chem, 2022) are IC50 values, retold here.

One may read the IC50 as the concentration that inhibits the measured activity by half.

One assay concerns the target T1, Dual specificity protein phosphatase 10 (Homo sapiens, UniProt Q9Y6W6).
T1 sequence (Q9Y6W6 whole entry): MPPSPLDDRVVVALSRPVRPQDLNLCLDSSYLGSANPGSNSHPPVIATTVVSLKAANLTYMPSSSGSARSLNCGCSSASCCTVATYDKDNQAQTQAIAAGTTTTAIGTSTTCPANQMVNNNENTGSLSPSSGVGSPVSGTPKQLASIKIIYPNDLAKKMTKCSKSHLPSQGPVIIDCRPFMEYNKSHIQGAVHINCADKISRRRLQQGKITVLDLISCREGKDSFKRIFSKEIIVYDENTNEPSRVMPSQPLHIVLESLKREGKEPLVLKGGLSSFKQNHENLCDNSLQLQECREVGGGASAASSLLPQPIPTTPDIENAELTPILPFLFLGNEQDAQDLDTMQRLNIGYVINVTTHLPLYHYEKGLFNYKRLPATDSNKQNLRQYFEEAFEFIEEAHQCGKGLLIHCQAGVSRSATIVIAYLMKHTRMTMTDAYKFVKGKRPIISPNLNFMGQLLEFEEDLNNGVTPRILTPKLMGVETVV
Nature of the assay: Inhibition of MKP5 catalytic domain (unknown origin) expressed in Escherichia coli BL21 (DE3) cells assessed as p38alpha MAPK phosphopeptide dephosphorylation using phosphopeptide as substrate incubated for 15 mins followed by substrate addition by malachite green dye based analysis.
Turning to `CSc1scc2c1-c1nc(SCC(=O)C(C)(C)C)ncc1CC2`, the IC50 came to 2.8 µM. Same read-out and setting: with `CC(=O)N1Cc2cnc(SCC(=O)C(C)(C)C)nc2-c2ccccc21` the figure was 150 µM.

Consider `CC(C)(C)C(=O)CSc1ncc2c(n1)-c1cccnc1CC2`, for which the half-maximal inhibitory concentration (IC50) was 76 µM.

As to `CCCc1csc2c1-c1nc(SCC(=O)C(C)(C)C)ncc1CC2`, the IC50 stood at 11 µM. Take `CC(C)(C)C(=O)CSc1nccc(-c2ccccc2)n1`: the IC50 was found to be 27 µM. Same read-out and setting: with `CC(C)(C)C(=O)CSc1nccc(-c2cccnc2)n1` the figure was 100 µM; with `Cc1ccc2c(c1)-c1nc(SCC(=O)C(C)(C)C)ncc1CC2`, 7.5 µM. Take `CC(C)(C)C(=O)CSc1ncc2c(n1)-c1cc(Cl)ccc1CC2`: the IC50 came out at 4 µM.

Turning to `CC(C)(C)C(=O)CSc1ncc2cnc3ccccc3c2n1`, the IC50 turned out to be 59 µM. Still for that read-out and setting: with `CCc1csc2c1-c1nc(SCC(=O)C(C)(C)C)ncc1CC2` the figure was 5 µM; with `CCN(C)C(=O)CSc1ncc2c(n1)-c1c(csc1SC)CC2`, 81 µM. For `CC(C)(C)C(=O)CSc1ncc2c(n1)-c1ccsc1CC2`, the concentration for half-maximal inhibition (IC50) was found to be 7.1 µM. On the same count and under the same terms, with `CC(C)(C)C(=O)CSc1ncc2c(n1)-c1ccccc1CC2` the figure was 6.2 µM.

The next assay concerns the target T1, Dual specificity protein phosphatase 10. Nature of the assay: Inhibition of human MKP5 catalytic domain (320 to 467 residues) expressed in Escherichia coli BL21 (DE3) cells by MST assay.
`CSc1scc2c1-c1nc(SCC(=O)C(C)(C)C)ncc1CC2` came in with an IC50 of 3.8 µM.
